Type in all cases: biochemical
Experiment [1] addresses KAT6A Full length enzyme (Homo sapiens (Human), UniProt Q92794). The experiment can be described thus: KAT6A assay (SAMDI-MS acetylation of H3 1-21 peptide). The note with it: replicate number in parentheses.
For experiment [2], the target named is KAT7+JADE1+EAF6+ING5 4 protein complex (Homo sapiens (Human), UniProt O95251). Nature of the experiment: KAT7 JADE1 assay (SAMDI-MS acetylation of H3 1-21 peptide). The note with it: replicate number in parentheses.
Experiment [3] deals with KAT7+BRPF1+EAF6+ING5 4 protein complex (Homo sapiens (Human), UniProt O95251). Nature of the experiment: KAT7 BRPF1 assay (SAMDI-MS acetylation of H3 1-21 peptide). To be noted: Morrison equation fit; replicate number in parentheses.
Experiment [4] has as its target KAT5 Full length enzyme (Homo sapiens (Human), UniProt Q92993). The experiment can be described thus: KAT5 assay (SAMDI-MS acetylation of H4 1-21 peptide). To be noted: replicate number in parentheses.
Experiment [5] addresses KAT7+BRPF2+EAF6+ING5 4 protein complex (Homo sapiens (Human), UniProt O95251). Nature of the experiment: KAT7 BRPF2 assay (SAMDI-MS acetylation of H3 1-21 peptide). The note with it: replicate number in parentheses.
Experiment [6] has as its target KAT8 Full length enzyme (Homo sapiens (Human), UniProt Q9H7Z6). The experiment can be described thus: KAT8 assay (SAMDI-MS acetylation of H3 1-21 peptide). The note with it: replicate number in parentheses.
Where [7] appears, read: Morrison equation fit, read-out: KAT6A Ki (nM) (replicate number).
Where [8] appears, read: Morrison equation fit, read-out: KAT7 JADE1 Ki (nM) (replicate number).
Where [9] appears, read: Morrison equation fit, read-out: KAT5 Ki (nM) (replicate number).
Setting [10] is: Morrison equation fit, read-out: KAT7 BRPF2 Ki (nM) (replicate number).
[11] abbreviates: Morrison equation fit, read-out: KAT8 Ki (nM) (replicate number).
Setting [12] is: read-out: KAT6A Ki (nM) (replicate).
Setting [13] is: read-out: KAT5 Ki (nM) (replicate).
Where [14] appears, read: read-out: KAT7 BRPF2 Ki (nM) (replicate).
Where [15] appears, read: read-out: KAT7 JADE1 Ki (nM) (replicate).
The mark [16] stands for this setting: read-out: KAT8 Ki (nM) (replicate).

Where two headings read alike, the source gives them in different places. A value given as a limit tells only on which side of the number the result lay.

Chain of KAT8 Full length enzyme (Q9H7Z6 whole entry): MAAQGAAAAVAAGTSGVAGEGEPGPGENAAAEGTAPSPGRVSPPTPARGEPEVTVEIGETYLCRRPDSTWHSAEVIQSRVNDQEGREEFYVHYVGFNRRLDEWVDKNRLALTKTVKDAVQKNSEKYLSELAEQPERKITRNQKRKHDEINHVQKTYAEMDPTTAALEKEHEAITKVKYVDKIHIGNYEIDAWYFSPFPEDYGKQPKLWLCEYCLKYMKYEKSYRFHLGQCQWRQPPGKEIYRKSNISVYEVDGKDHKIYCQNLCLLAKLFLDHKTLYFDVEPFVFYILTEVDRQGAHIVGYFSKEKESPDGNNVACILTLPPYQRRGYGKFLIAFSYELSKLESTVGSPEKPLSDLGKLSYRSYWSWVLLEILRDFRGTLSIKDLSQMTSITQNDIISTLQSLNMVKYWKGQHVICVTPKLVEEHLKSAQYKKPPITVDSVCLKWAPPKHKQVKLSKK
Chain of KAT6A Full length enzyme (Q92794 other isoform, or with tags, fused parts or gaps): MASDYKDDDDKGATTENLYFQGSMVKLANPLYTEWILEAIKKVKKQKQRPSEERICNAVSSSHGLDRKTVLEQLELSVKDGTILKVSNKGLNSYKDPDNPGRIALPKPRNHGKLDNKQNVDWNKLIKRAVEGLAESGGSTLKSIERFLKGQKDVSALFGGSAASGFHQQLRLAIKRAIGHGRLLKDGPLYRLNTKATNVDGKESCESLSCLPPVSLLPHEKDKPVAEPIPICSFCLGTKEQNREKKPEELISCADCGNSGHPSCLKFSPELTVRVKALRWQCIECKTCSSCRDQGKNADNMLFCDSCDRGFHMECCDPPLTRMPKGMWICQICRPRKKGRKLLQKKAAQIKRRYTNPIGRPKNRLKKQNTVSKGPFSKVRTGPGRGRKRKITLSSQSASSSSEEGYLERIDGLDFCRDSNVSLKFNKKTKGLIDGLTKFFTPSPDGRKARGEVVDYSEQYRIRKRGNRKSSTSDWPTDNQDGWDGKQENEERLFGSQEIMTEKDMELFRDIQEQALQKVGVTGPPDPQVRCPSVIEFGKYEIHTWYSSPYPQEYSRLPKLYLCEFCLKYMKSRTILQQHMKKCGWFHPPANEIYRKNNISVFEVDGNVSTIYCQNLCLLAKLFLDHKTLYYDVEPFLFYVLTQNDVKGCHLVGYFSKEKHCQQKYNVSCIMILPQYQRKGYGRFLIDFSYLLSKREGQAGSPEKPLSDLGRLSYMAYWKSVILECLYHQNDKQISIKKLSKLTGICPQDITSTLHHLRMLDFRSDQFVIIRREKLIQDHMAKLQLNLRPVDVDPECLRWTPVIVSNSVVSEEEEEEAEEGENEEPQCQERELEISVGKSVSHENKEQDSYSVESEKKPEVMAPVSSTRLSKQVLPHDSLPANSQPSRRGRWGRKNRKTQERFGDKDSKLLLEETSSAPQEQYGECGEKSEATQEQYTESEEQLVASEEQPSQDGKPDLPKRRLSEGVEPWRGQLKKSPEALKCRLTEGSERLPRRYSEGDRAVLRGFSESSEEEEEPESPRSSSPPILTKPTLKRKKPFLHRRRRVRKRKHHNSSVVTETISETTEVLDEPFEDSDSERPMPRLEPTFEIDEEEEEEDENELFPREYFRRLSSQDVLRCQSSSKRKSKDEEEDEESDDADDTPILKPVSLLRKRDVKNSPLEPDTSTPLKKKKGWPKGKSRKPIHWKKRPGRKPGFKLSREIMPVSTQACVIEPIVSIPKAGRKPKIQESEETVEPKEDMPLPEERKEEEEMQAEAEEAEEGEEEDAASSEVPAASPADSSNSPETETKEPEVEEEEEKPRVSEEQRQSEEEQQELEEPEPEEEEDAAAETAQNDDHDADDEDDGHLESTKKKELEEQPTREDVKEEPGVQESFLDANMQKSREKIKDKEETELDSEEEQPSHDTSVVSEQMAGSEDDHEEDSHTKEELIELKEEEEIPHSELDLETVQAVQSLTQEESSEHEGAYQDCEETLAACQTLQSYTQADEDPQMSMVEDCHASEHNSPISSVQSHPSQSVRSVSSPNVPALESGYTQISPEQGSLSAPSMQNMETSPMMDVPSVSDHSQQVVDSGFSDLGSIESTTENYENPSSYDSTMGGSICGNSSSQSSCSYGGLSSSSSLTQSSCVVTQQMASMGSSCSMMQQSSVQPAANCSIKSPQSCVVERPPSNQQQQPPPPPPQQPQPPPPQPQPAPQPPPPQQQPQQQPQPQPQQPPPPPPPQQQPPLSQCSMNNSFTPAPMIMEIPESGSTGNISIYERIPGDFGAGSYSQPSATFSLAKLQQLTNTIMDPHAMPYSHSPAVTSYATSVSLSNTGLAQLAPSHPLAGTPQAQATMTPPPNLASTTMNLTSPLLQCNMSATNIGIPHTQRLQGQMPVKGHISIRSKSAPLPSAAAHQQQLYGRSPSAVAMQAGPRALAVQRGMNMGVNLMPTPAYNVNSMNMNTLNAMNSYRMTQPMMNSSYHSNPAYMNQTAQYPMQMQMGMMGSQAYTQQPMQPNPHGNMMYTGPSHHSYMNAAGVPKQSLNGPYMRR
Chain of KAT5 Full length enzyme (Q92993 whole entry): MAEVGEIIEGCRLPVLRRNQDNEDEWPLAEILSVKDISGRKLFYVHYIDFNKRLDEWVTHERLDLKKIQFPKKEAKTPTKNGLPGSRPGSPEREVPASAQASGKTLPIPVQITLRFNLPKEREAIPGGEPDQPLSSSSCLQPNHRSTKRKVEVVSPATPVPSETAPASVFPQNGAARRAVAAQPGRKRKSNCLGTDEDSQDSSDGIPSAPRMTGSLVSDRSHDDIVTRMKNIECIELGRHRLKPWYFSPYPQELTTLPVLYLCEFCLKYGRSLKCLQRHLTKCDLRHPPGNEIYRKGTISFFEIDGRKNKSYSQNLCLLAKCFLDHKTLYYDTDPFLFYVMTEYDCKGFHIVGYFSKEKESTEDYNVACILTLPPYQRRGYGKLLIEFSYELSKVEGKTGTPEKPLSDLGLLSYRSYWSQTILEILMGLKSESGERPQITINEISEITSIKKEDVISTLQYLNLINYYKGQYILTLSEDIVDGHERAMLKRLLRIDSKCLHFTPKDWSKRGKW

`COc1cc2c(NS(=O)(=O)c3c(OC)cc(C4CCCCN4C)cc3OC)noc2cc1Nc1cc(C2CC2)n[nH]1` (racemic) [Example 155, N-{6-[(3-cyclopropyl-1 H-pyrazol-5-yl)amino]-5-methoxy-1,2-benzoxazol-3-yl}-2,6-dimethoxy-4-(1-methylpiperidin-2-yl)benzene-1-sulfonamide]: the Ki (as a rule, a measure of affinity in units of concentration, obtained from inhibition or displacement) in experiment [1] (setting [7]) amounted to 2.9 nM; in experiment [2] (setting [8]) it was 24.3 nM; in experiment [3] it was 14.9 nM.
Regarding `COc1cc2c(NS(=O)(=O)c3c(OC)cc(C4COCC(C)(C)O4)cc3OC)noc2cc1Nc1cc(C2CC2)n[nH]1` (single isomer, unassigned) [Example 184, N-{6-[(3-cyclopropyl-1 H-pyrazol-5-yl)amino]-5-methoxy-1,2-benzoxazol-3-yl}-4-(6,6-dimethyl-1,4-dioxan-2-yl)-2,6-dimethoxybenzene-1-sulfonamide], the Ki in experiment [1] (setting [7]) is 1.8 nM; in experiment [4] (setting [9]) it was 60.7 nM; in experiment [5] (setting [10]), 1.6 nM; in experiment [2] (setting [8]), 4.7 nM; in experiment [6] (setting [11]) it was 1030 nM.
In the same order, the values of `COc1cc2c(NS(=O)(=O)c3c(OC)cc(C4COC(C)(C)CO4)cc3OC)noc2cc1Nc1cc(C2CC2)n[nH]1` (single isomer, unassigned) [Example 185, N-{6-[(3-cyclopropyl-1 H-pyrazol-5-yl)amino]-5-methoxy-1,2-benzoxazol-3-yl}-4-(5,5-dimethyl-1,4-dioxan-2-yl)-2,6-dimethoxybenzene-1-sulfonamide] are 0.3 nM, 1 nM, 0.9 nM, 1.8 nM and 1220 nM.
Take `COc1cc2c(NS(=O)(=O)c3c(OC)cc(C4COC(C)(C)CO4)cc3OC)noc2cc1Nc1cc(C2CC2)n[nH]1` (single isomer, unassigned) [Example 186, N-{6-[(3-cyclopropyl-1 H-pyrazol-5-yl)amino]-5-methoxy-1,2-benzoxazol-3-yl}-4-(5,5-dimethyl-1,4-dioxan-2-yl)-2,6-dimethoxybenzene-1-sulfonamide]: the Ki was found to be 0.8 nM in experiment [1] (setting [7]); 5.8 nM in experiment [4] (setting [9]); 1.5 nM in experiment [5] (setting [10]); 3.6 nM in experiment [2] (setting [8]); 590 nM in experiment [6] (setting [11]).
In the case of `CCOc1cccc(OC)c1S(=O)(=O)Nc1noc2cc(Nc3cc[nH]n3)c(OC)cc12` [Example 30, 2-ethoxy-6-methoxy-N-{5-methoxy-6-[(1H-pyrazol-3-yl)amino]-1,2-benzoxazol-3-yl}benzene-1-sulfonamide], the inhibition constant (Ki) was 0.5 nM in experiment [1] (setting [7]); 605 nM in experiment [4] (setting [9]); 26 nM in experiment [5] (setting [10]); 248 nM in experiment [2] (setting [8]); 676 nM in experiment [6] (setting [11]).
Consider `COc1cc2c(NS(=O)(=O)c3c(OC)cccc3OC3CCC3)noc2cc1Nc1cc[nH]n1` [Example 33, 2-(cyclobutyloxy)-6-methoxy-N-{5-methoxy-6-[(1H-pyrazol-3-yl)amino]-1,2-benzoxazol-3-yl}benzene-1-sulfonamide], for which the Ki is 988 nM in experiment [4] (setting [9]), 142 nM in experiment [2] (setting [8]), 733 nM in experiment [6] (setting [11]) and 15.4 nM in experiment [3].
As to `COc1cc2c(NS(=O)(=O)c3c(OC)cccc3OC)noc2cc1Nc1c(C#N)c(C)nn1C` [Example 46, N-{6-[(4-cyano-1,3-dimethyl-1H-pyrazol-5-yl)amino]-5-methoxy-1,2-benzoxazol-3-yl}-2,6-dimethoxybenzene-1-sulfonamide], the results for the inhibition constant Ki in experiment [1] (setting [7]), in experiment [2] (setting [8]) and in experiment [3] were greater than 377 nM, greater than 9770 nM and greater than 16100 nM, respectively.
`COc1cc2c(NS(=O)(=O)c3c(OC)cccc3OC)noc2cc1Nc1cc(C)nn1CCO` [Example 59, N-(6-{[1-(2-hydroxyethyl)-3-methyl-1H-pyrazol-5-yl]amino}-5-methoxy-1,2-benzoxazol-3-yl)-2,6-dimethoxybenzene-1-sulfonamide]: the figures for the Ki in experiment [2] (setting [8]) and in experiment [3] were greater than 2870 nM and 580 nM, respectively.
Turning to `CCOc1cccc(OC)c1S(=O)(=O)Nc1noc2cc(Nc3cc(C(C)C)[nH]n3)c(OC)cc12` [Example 83, 2-ethoxy-6-methoxy-N-(5-methoxy-6-{[5-(propan-2-yl)-1H-pyrazol-3-yl]amino}-1,2-benzoxazol-3-yl)benzene-1-sulfonamide], the inhibitory constant (Ki) was found to be 2.9 nM in experiment [1] (setting [7]); 502 nM in experiment [4] (setting [9]); 7.8 nM in experiment [5] (setting [10]); 60.1 nM in experiment [2] (setting [8]); 10400 nM in experiment [6] (setting [11]).
In the same order, the values of `CCc1cc(Nc2cc3onc(NS(=O)(=O)c4ccc(C(=O)NCCCCCN)cc4OC)c3cc2OC)[nH]n1` [Example 96, N-(5-aminopentyl)-4-({6-[(3-ethyl-1H-pyrazol-5-yl)amino]-5-methoxy-1,2-benzoxazol-3-yl}sulfamoyl)-3-methoxybenzamide] are 7.3 nM, 2050 nM, 13.6 nM, 103 nM and greater than 13000 nM.
In the same order, the values of `CCOc1cccc(OC)c1S(=O)(=O)Nc1noc2cc(Nc3cc(C)[nH]n3)c(OC)cc12` [Example 99, 2-ethoxy-6-methoxy-N-{5-methoxy-6-[(5-methyl-1H-pyrazol-3-yl)amino]-1,2-benzoxazol-3-yl}benzene-1-sulfonamide] are 0.5 nM, 388 nM, 5.5 nM, 82.6 nM and 4840 nM.
In the same order, the values of `CCc1cc(Nc2cc3onc(NS(=O)(=O)c4ccc(C(=O)NCCCCCNC(=O)c5ccc(-c6nnc(C)nn6)cc5)cc4OC)c3cc2OC)[nH]n1` [Example 138, 4-({6-[(3-Ethyl-1 H-pyrazol-5-yl)amino]-5-methoxy-1,2-benzoxazol-3-yl}sulfamoyl)-3-methoxy-N-{5-[4-(6-methyl-1,2,4,5-tetrazin-3-yl)benzamido]pentyl}benzamide] are 1.2 nM, 195 nM, 5.6 nM, 40.6 nM and greater than 13000 nM.
As to `COc1cc2c(NS(=O)(=O)c3c(OC)cc([C@H]4CCCN4C)cc3OC)noc2cc1Nc1cc(C2CC2)n[nH]1` [Example 188, N-{6-[(3-cyclopropyl-1 H-pyrazol-5-yl)amino]-5-methoxy-1,2-benzoxazol-3-yl}-2,6-dimethoxy-4-[(2R)-1-methylpyrrolidin-2-yl]benzene-1-sulfonamide], the inhibition constant (Ki) in experiment [1] (setting [7]) is 2.5 nM; in experiment [4] (setting [9]), 140 nM; in experiment [5] (setting [10]), 2.9 nM; in experiment [2] (setting [8]), 8.4 nM; in experiment [6] (setting [11]) it was 3690 nM.
As to `COc1cc2c(NS(=O)(=O)c3c(OC)cc(-c4ncc(C)cn4)cc3OC)noc2cc1Nc1cc(C2CC2)n[nH]1` [Example 213, N-{6-[(3-cyclopropyl-1H-pyrazol-5-yl)amino]-5-methoxy-1,2-benzoxazol-3-yl}-2,6-dimethoxy-4-(5-methylpyrimidin-2-yl)benzene-1-sulfonamide], the Ki was 0.5 nM in experiment [1] (setting [7]), 3.9 nM in experiment [2] (setting [8]), 1570 nM in experiment [6] (setting [11]) and 1.7 nM in experiment [3].
In the case of `COc1cc2c(NS(=O)(=O)c3c(OC)cc(N4CC[C@@H](F)C4)cc3OC)noc2cc1Nc1cc(C2CC2)n[nH]1` [Example 249, N-{6-[(3-cyclopropyl-1H-pyrazol-5-yl)amino]-5-methoxy-1,2-benzoxazol-3-yl}-4-[(3R)-3-fluoropyrrolidin-1-yl]-2,6-dimethoxybenzene-1-sulfonamide], the Ki in experiment [1] (setting [12]) came out at 0.3 nM; in experiment [4] (setting [13]) it was 8.7 nM; in experiment [5] (setting [14]) it was 0.3 nM; in experiment [2] (setting [15]) it was 1.7 nM; in experiment [6] (setting [16]), 104 nM.
As to `COc1cc2c(NS(=O)(=O)c3c(OC)cc(N4CCN(C)CC4)cc3OC)noc2cc1Nc1cc(C2CC2)n[nH]1` [Example 251, N-{6-[(3-cyclopropyl-1H-pyrazol-5-yl)amino]-5-methoxy-1,2-benzoxazol-3-yl}-2,6-dimethoxy-4-(4-methylpiperazin-1-yl)benzene-1-sulfonamide], the inhibitory constant (Ki) in experiment [1] (setting [12]) came to 1 nM; in experiment [4] (setting [13]) it was 67 nM; in experiment [5] (setting [14]), 2.1 nM; in experiment [2] (setting [15]), 6.2 nM; in experiment [6] (setting [16]), 1150 nM.
For `COc1cc2c(NS(=O)(=O)c3c(OC)cc(N4CCN(C)C(=O)C4)cc3OC)noc2cc1Nc1cc(C2CC2)n[nH]1` [Example 254, N-{6-[(3-cyclopropyl-1H-pyrazol-5-yl)amino]-5-methoxy-1,2-benzoxazol-3-yl}-2,6-dimethoxy-4-(4-methyl-3-oxopiperazin-1-yl)benzene-1-sulfonamide], in that order: 0.7 nM, 54.5 nM, 1.2 nM, 6.6 nM and 1260 nM.
In the case of `COc1cc2c(NS(=O)(=O)c3c(OC)cc(N4C(=O)CCC4(C)C)cc3OC)noc2cc1Nc1cc(C2CC2)n[nH]1` [Example 256, N-{6-[(3-cyclopropyl-1H-pyrazol-5-yl)amino]-5-methoxy-1,2-benzoxazol-3-yl}-4-(2,2-dimethyl-5-oxopyrrolidin-1-yl)-2,6-dimethoxybenzene-1-sulfonamide], the Ki is 1.1 nM in experiment [1] (setting [12]), 0.8 nM in experiment [5] (setting [14]) and 4.7 nM in experiment [2] (setting [15]).

(Values after US20250122183A1 (Pfizer Inc., priority 2023, published 2025).)
